# Results published in US20070037205A1, “Methods and apparatus for cell based screening” (priority 2001, published 2007).
# Test system: HT-29 cells
# Assay: HT-29 cytotoxicity assay (resazurin), with or without IFN-γ pretreatment
# Assay type: cell-based, human
# Details: IFN-γ treatment alone (data not shown)
# Protocol: HT-29 cells (ATCC HTB-38) were cultured in McCoy's 5a Medium with 25 mM HEPES and supplemented with 10% fetal calf serum, 1× nonessential amino acids, 2 mM L-glutamine, 1 mM sodium pyruvate, 100 U/ml penicillin/100 ug/ml streptomycin (complete medium) at 37° C. in a humidified 5% CO2 cabinet. The cellular monolayer was washed with PBS and adherent cells were removed by treatment with 0.25% typsin/0.05% EDTA. The cells were collected by centrifugation and resuspended in complete medium. Cell number and viability was determined by Trypan Blue exclusion staining.
# Duplicate plates of HT-29 cells were prepared by seeding cells into clear bottom, black walled 96 well tissue culture treated microplates (Corning 3904) at 5000 cells/well in a volume of 150 μl per well. […] Reduction of resazurin due to metabolic activity causes the dye to change from a non-fluorescent to fluorescent product that can be measured at 530 nm excitation and 590 nm emission wavelengths. Relative Fluorescent Units (RFU) was measured in a Fluoroskan Ascent microplate fluorometer (Thermo/Labsystems) in a bottom-read mode with excitation at 530 nm and emission at 590 nm. […]
# Extracts that scored positive in the primary screen were evaluated for tumor cell death in a dose-dependent cytotoxicity assay. […] Inhibition of cellular growth was determined using resazurin indicator dye as described above. […]
substance,measurement,value
"IFN-γ: recombinant human IFN-γ (R & D Systems), sensitizing agent",growth inhibitory effect on HT-29 cells,no growth inhibitory effect
